Reference: patent publication US5447912A, “Erection-inducing methods and compositions” (priority 1993, dated 1995)
“Also recorded” adds a separate entry of the source. Where no end group is shown, it is not given here.

Key:
human males [1] = experiment: Side effects of intracavernosal injection to induce an erection; format: in vivo
[2] = test system: male suffering from impotence, which is substantially only neurogenic or psychogenic; experiment: Intracavernosal injection coupled with sexual stimulation in males with impotence that is substantially only neurogenic or psychogenic; format: in vivo, human; conditions: for time to erection sufficient for vaginal penetration: 1 ml of 30 μg/ml in phosphate buffered saline, after tourniquet release (5-10 minutes after injection) and sexual stimulation; for dose with which virtually all males achieve an erection sufficient for vaginal penetration: intracavernosal injection in physiologically acceptable diluent; for dose with which virtually all males achieve an erection sufficient for vaginal penetration / dose as low as which many males achieve an erection sufficient for vaginal penetration: coupled with sexual stimulation; for dose as low as which many males achieve an erection sufficient for vaginal penetration: intracavernosal injection
Protocol: A preferred composition to effect an erection in male suffering from impotence, which is substantially only neurogenic or psychogenic, in accord with the methods herein, is a solution of PHM or VIP at 30 μg/ml in phosphate buffered saline at pH between about 2 and about 4.5, preferably between about 2 and about 3.5 and most preferably about 3, with the PHM or VIP the only substance in the solution that is pharmacologically active in inducing an erection. Preferably 1 ml of the preferred composition is administered as a bolus by injection into a corpus cavernosum while the penis is constricted at its base with a tourniquet. About 5-10 minutes after the injection, the tourniquet is released and, if not already started before the tourniquet is released, sexual stimulation is begun. […] The composition, however, the time between administration and sexual stimulation may be longer, if necessary.

[3] = test system: males suffering from impotence of which severe atherosclerosis is a cause; experiment: Intracavernosal injection coupled with sexual stimulation in males with impotence of which severe atherosclerosis is a cause; format: in vivo, human
Protocol: To minimize side-effects when VIP is employed in such a composition, it is preferred that less than about 60 μg of VIP be administered.
Thus, between about 0. […] If necessary, the time between injection and sexual stimulation may be longer, up to several hours.

[4] = test system: males suffering from impotence of which severe atherosclerosis is a cause; conditions: background statement; cited from earlier work
[5] = test system: male suffering from impotence, which is substantially only neurogenic or psychogenic; conditions: cited from earlier work; for erection after intracavernosal injection where severe atherosclerosis is not involved (background): injection into a corpus cavernosum
human males [6] = conditions: cited from earlier work; for priapism (background): treatment of impotence
[7] = test system: normal male (males not suffering from erectile insufficiency); conditions: cited from earlier work

peptide N-terminal histidine C-terminal methionineamide (HADGVFTSDFSKLLGQLSAKKYLESLM-NH2; UniProt P01282 81-107, looked up) [PHM]
priapism (human males [1]; induction of an erection with VIP or PHM by intracavernosal injection): does not entail priapism; also recorded: Priapism does not occur
time to erection sufficient for vaginal penetration [2]: ≤ 5 min
duration of pharmacological effect compared with VIP ([2]; at the same dosage): somewhat longer lasting pharmacological effect than VIP
dose with which virtually all males achieve an erection sufficient for vaginal penetration [2]: 30 µg
dose as low as which many males achieve an erection sufficient for vaginal penetration [2]: 10 µg
induction of erection in impotence caused by severe atherosclerosis [3]: not effective in inducing erections

Cc1ccc(N(CC2=NCCN2)c2cccc(O)c2)cc1 [phentolamine]
induction of erection in impotence due to severe atherosclerosis (background) [4]: not susceptible to treatment
erection after intracavernosal injection where severe atherosclerosis is not involved (background) [5]: causes an erection sufficient for vaginal penetration
duration of resulting erection (background) ([5]; intracavernosal injection, severe atherosclerosis not a cause): significantly shorter duration than that induced by intracavernosal injection of papaverine or phenoxybenzamine

CC(COc1ccccc1)N(CCCl)Cc1ccccc1 (centres unmarked) [phenoxybenzamine]
induction of erection in impotence due to severe atherosclerosis (background) [4]: not susceptible to treatment
carcinogenicity (background) (human males [6]; in vivo): is a carcinogen
priapism (background) (human males [6]): often results in priapism
erection after intracavernosal injection where severe atherosclerosis is not involved (background) [5]: cause an erection sufficient for vaginal penetration

human vasoactive intestinal peptide [VIP]
side-effects observed at higher doses (human males [1]; in vivo): hypotension, increased pulse rate, flushing of the face and trunk
time to erection sufficient for vaginal penetration [2]: ≤ 5 min
dose with which virtually all males achieve an erection sufficient for vaginal penetration [2]: 30 µg
dose as low as which many males achieve an erection sufficient for vaginal penetration [2]: 10 µg
induction of erection in impotence due to severe atherosclerosis (background) [4]: does not induce erections
induction of erection in impotence caused by severe atherosclerosis [3]: not effective in inducing erections
erectile response coupled with visual and/or vibratory sexual stimulation ([7]; as little as 1 μm (at 1 μm/ml of diluent) injected into a corpus cavernosum): facilitates full erection
erectile response without sexual stimulation ([7]; injection of up to 20 μm of VIP (at 20 μm/ml of diluent) into a corpus cavernosum, no sexual stimulation): only slight swelling (slight tumescence) of the penis but not an erection

COc1ccc(Cc2nccc3cc(OC)c(OC)cc23)cc1OC [papaverine]
induction of erection in impotence due to severe atherosclerosis (background) [4]: ineffective; also recorded: not susceptible to treatment
pain on injection (background) (human males [6]; intracavernosal use): painful, burning sensation in the first two or so minutes after the injection
fibrosis on repeated use (background) (human males [6]; repeated use): undesirable, extensive intracavernous fibrosis
priapism (background) (human males [6]): often results in priapism
erection after intracavernosal injection where severe atherosclerosis is not involved (background) [5]: cause an erection sufficient for vaginal penetration
